We go through three compounds from patent US5589474A, “Dibenzothiazepinthione as antiviral agents” (Glaxo Wellcome Inc., priority 1991, dated 1996).

Assay [1] has as its system HIV. As to the kind of experiment: HIV (in vitro) MT4 assay. The format is cell-based. As to conditions: Human immunodeficiency virus 1.
In assay [2] the test system is HIV. As to the kind of experiment: HeLa-CD4 plaque reduction assay (HIV in vitro). The format is cell-based. The following applies: Human immunodeficiency virus 1. A general note: In a plaque reduction assay, fewer plaques than in the control indicate reduced infectivity or spread.

Usually IC50 stands for the point on the concentration scale where inhibition reaches its midpoint. High values mean weaker potency in that assay, low ones greater potency in that assay. `Fc1cccc2c1Sc1ccccc1NC2=S` [8(iv), 4-Fluoro-10,11-dihydrobenzo[b,f][1,4]thiazepin-11-thione]: the IC50 with HIV [1] was 3.3 µM; in the assay on HIV [2], 15.4 µM.
As to `S=C1Nc2ccccc2Sc2ccccc21` [Example 3, 10,11-Dihydrodibenzo[b,f][1,4]thiazepin-11-thione], the IC50 came to 9 µM with HIV [1] and 5 µM in the assay on HIV [2].
Take `O=[N+]([O-])c1ccc2c(c1)C(=S)Nc1ccccc1S2` [Example 6, 2-Nitro-10,11-dihydrodibenzo[b,f][1,4]thiazepin-11-thione]: the IC50 in the assay on HIV [1] stood at 44.4 µM; with HIV [2], 14.4 µM.
